From patent US10221161B2, “Inhibitors of plasma kallikrein” (Kalvista Pharmaceuticals Limited, priority 2013, dated 2019)
pIC50: −log10 of the molar value.

Tests used:
Human plasma kallikrein = Human plasma kallikrein (Homo sapiens (Human), UniProt P03952); assay: Determination of the IC50 for plasma kallikrein (fluorogenic substrate H-DPro-Phe-Arg-AFC); type: biochemical; conditions: 37° C., read-out: IC50 (human PKal)
Description: Determination of the IC50 Plasma Kallikrein Plasma kallikrein inhibitory activity in vitro was determined using standard published methods (see e.g. Johansen et al., Int. J. Tiss. […] Shori et al., Biochem. Pharmacol., 1992, 43, 1209; Stürzebecher et al., Biol. Chem. Hoppe-Seyler, 1992, 373, 1025). Human plasma kallikrein (Protogen) was incubated at 37° C. with the fluorogenic substrate […] and various concentrations of the test compound.

Human KLK1 = Human KLK1 (Homo sapiens (Human), UniProt P06870); assay: Determination of the IC50 for KLK1 (fluorogenic substrate H-DVal-Leu-Arg-AFC); type: biochemical; conditions: human KLK1, 37° C.
Description: Selected compounds were further screened for inhibitory activity against the related enzyme KLK1. The ability of the compounds of formula (I) to inhibit KLK1 may be determined using the following biological assay:
Determination of the IC50 for KLK1
KLK1 inhibitory activity in vitro was determined using standard published methods (see e.g. Johansen et al., Int. J. Tiss. Reac. 1986, 8, 185; Shori et al., Biochem. Pharmacol., 1992, 43, 1209; Stürzebecher et al., Biol. Chem. Hoppe-Seyler, 1992, 373, 1025). Human KLK1 (Callbiochem) was incubated at 37° C. with the fluorogenic substrate H-DVal-Leu-Arg-AFC and various concentrations of the test compound. Residual enzyme activity (initial rate of reaction) was determined by measuring the change in optical absorbance at 410 nm and the IC50 value for the test compound was determined.

Sequence of Human plasma kallikrein (P03952 391-638 limits assumed): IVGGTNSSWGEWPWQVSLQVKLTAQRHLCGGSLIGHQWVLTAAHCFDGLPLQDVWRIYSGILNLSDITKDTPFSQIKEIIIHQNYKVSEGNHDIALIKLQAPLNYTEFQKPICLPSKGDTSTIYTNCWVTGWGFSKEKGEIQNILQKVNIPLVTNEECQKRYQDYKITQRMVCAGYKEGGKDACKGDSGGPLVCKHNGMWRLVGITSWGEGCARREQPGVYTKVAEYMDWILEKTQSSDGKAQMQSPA
Sequence of Human plasma kallikrein (P03952 20-390 partner limits assumed): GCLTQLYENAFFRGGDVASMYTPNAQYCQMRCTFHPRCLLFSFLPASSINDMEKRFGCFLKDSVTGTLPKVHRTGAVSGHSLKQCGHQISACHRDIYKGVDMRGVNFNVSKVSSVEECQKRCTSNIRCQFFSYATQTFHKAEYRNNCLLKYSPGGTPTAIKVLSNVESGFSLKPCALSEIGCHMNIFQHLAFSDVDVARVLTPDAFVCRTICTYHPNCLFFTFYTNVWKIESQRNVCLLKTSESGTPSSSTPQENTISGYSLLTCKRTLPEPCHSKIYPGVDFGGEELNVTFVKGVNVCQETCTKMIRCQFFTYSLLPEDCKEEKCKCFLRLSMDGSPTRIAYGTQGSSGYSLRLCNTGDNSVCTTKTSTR
Sequence of Human KLK1 (P06870 25-262): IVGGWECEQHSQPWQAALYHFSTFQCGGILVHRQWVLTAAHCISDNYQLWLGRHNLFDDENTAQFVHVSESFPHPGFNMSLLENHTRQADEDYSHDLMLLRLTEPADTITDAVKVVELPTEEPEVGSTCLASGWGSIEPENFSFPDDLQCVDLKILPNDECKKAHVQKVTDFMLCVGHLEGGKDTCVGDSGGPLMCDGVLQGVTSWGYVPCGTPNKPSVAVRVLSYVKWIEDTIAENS

| Compound | pIC50 (Human plasma kallikrein) | pIC50 (Human KLK1) |
| --- | --- | --- |
| Nc1nccc2cc(CNC(=O)c3ccc(=O)n(Cc4ccc(Cn5ccccc5=O)cc4)c3)ccc12 [Example 5, N-[(1-Aminoisoquinolin-6-yl)methyl]-6-oxo-1-({4-[(2-oxopyridin-1-yl)methyl]phenyl}methyl)pyridine-3-carboxamide] | 7.61 | 4.54 |
| Nc1nccc2cc(CNC(=O)c3ccc(=O)n(Cc4csc(-c5ccccc5)n4)c3)ccc12 [Example 14, N-[(1-Aminoisoquinolin-6-yl)methyl]-6-oxo-1-[(2-phenyl-1,3-thiazol-4-yl)methyl]pyridine-3-carboxamide] | 5.57 | 5.38 |
| COc1ccc(CN2CCN(Cc3cncc(C(=O)NCc4ccc5c(N)nccc5c4)c3)CC2)cc1 [Example 45, N-[(1-Aminoisoquinolin-6-yl)methyl]-5-({4-[(4-methoxyphenyl)methyl]piperazin-1-yl}methyl)pyridine-3-carboxamide] | 4.47 | 4.57 |
| Nc1nccc2cc(CNC(=O)c3cncc(Cc4ccc(N5CCC(F)C5)nc4)c3)ccc12 (stereo not shown) [Example 60, N-[(1-Aminoisoquinolin-6-yl)methyl]-5-{[6-(3-fluoropyrrolidin-1-yl)pyridin-3-yl]methyl}pyridine-3-carboxamide] | 6.86 | 5.06 |
| CN1CCOc2cc(Cc3cncc(C(=O)NCc4ccc5c(N)nccc5c4)c3)ccc21 [Example 38, N-[(1-Aminoisoquinolin-6-yl)methyl]-5-[(4-methyl-2,3-dihydro-1,4-benzoxazin-7-yl)methyl]pyridine-3-carboxamide] | 6.97 | 5.07 |
| Cc1ccc2cc(Cc3cncc(C(=O)NCc4c(C)nc5[nH]ccc(C)c4-5)c3)ccc2n1 [Example 13, N-({2,4-Dimethyl-7H-pyrrolo[2,3-b]pyridin-3-yl}methyl)-5-[(2-methylquinolin-6-yl)methyl]pyridine-3-carboxamide] | 6.03 | 6.63 |
| COc1cccc(Cc2cncc(C(=O)NCc3ccc4c(N)nccc4c3)c2)c1 [Example 25, N-[(1-Aminoisoquinolin-6-yl)methyl]-5-[(3-methoxyphenyl)methyl]pyridine-3-carboxamide] | 5.58 | 5.21 |
| Cc1cnn(Cc2ccc(Cc3cncc(C(=O)NCc4c(C)cc(CN)cc4C)n3)cc2)c1 [Example 95, N-{[4-(Aminomethyl)-2,6-dimethylphenyl]methyl}-6-({4-[(4-methylpyrazol-1-yl)methyl]phenyl}methyl)pyrazine-2-carboxamide] | 7.27 | < 4.40 |
| CC1CCCN1c1ccc(Cc2cncc(C(=O)NCc3ccc4c(N)nccc4c3)c2)cn1 (stereo not shown) [Example 58, N-[(1-Aminoisoquinolin-6-yl)methyl]-5-{[6-(2-methylpyrrolidin-1-yl)pyridin-3-yl]methyl}pyridine-3-carboxamide] | 6.82 | 5.19 |
| Nc1nccc2cc(CNC(=O)c3cncc(Cc4ccnc(N5CCOCC5)c4)c3)ccc12 [Example 85, N-[(1-Aminoisoquinolin-6-yl)methyl]-5-{[2-(morpholin-4-yl)pyridin-4-yl]methyl}pyridine-3-carboxamide] | 5.78 | 5.07 |
| Nc1nccc2cc(CNC(=O)c3cncc(Cc4cccc(Cn5cccn5)c4)c3)ccc12 [Example 32, N-[(1-Aminoisoquinolin-6-yl)methyl]-5-{[3-(pyrazol-1-ylmethyl)phenyl]methyl}pyridine-3-carboxamide] | 6.63 | 5.02 |
| Nc1nccc2cc(CNC(=O)c3cncc(CN4CCN(Cc5ccccc5F)CC4)c3)ccc12 [Example 44, N-[(1-Aminoisoquinolin-6-yl)methyl]-5-({4-[(2-fluorophenyl)methyl]piperazin-1-yl}methyl)pyridine-3-carboxamide] | 5.17 | 4.55 |
| COc1ncc(Cc2ccc3nc(C)ccc3c2)cc1C(=O)NCc1ccc2c(N)nccc2c1 [Example 19, N-[(1-Aminoisoquinolin-6-yl)methyl]-2-methoxy-5-[(2-methylquinolin-6-yl)methyl]pyridine-3-carboxamide] | 6.36 | 5.92 |
| CN(C)[C@@H]1CCN(c2cc(Cc3cncc(C(=O)NCc4ccc5c(N)nccc5c4)c3)ccn2)C1 (stereo in doubt) [Example 90, N-[(1-Aminoisoquinolin-6-yl)methyl]-5-({2-[3-(dimethylamino)pyrrolidin-1-yl]pyridin-4-yl}methyl)pyridine-3-carboxamide] | 5.81 | 5.41 |
| COc1ccccc1CN1CCN(Cc2cncc(C(=O)NCc3ccc4c(N)nccc4c3)c2)CC1 [Example 42, N-[(1-Aminoisoquinolin-6-yl)methyl]-5-({4-[(2-methoxyphenyl)methyl]piperazin-1-yl}methyl)pyridine-3-carboxamide] | 5.74 | 4.61 |
| Nc1nccc2cc(CNC(=O)c3cncc(Cc4ccccc4)c3)ccc12 [Example 23, N-[(1-Aminoisoquinolin-6-yl)methyl]-5-benzylpyridine-3-carboxamide] | 4.40 | 4.49 |
| Nc1nccc2cc(CNC(=O)c3cncc(CN4CCN(Cc5ccccc5)CC4)c3)ccc12 [Example 41, N-[(1-Aminoisoquinolin-6-yl)methyl]-5-[(4-benzylpiperazin-1-yl)methyl]pyridine-3-carboxamide] | 5.56 | 4.43 |
| CCN(CC)c1cc(Cc2cncc(C(=O)NCc3ccc4c(N)nccc4c3)c2)ccn1 [Example 87, N-[(1-Aminoisoquinolin-6-yl)methyl]-5-{[2-(diethylamino)pyridin-4-yl]methyl}pyridine-3-carboxamide] | 6.45 | 5.30 |
| Cc1ccc2cc(Cc3cnc(C)c(C(=O)NCc4ccc5c(N)nccc5c4)c3)ccc2n1 [Example 22, N-[(1-Aminoisoquinolin-6-yl)methyl]-2-methyl-5-[(2-methylquinolin-6-yl)methyl]pyridine-3-carboxamide] | 6.98 | 6.32 |
| Cn1cc(CN2CCN(Cc3cncc(C(=O)NCc4ccc5c(N)nccc5c4)c3)CC2)cn1 [Example 47, N-[(1-Aminoisoquinolin-6-yl)methyl]-5-({4-[(1-methylpyrazol-4-yl)methyl]piperazin-1-yl}methyl)pyridine-3-carboxamide] | 4.40 | < 4.40 |

Results, then the compound that gave them:

| pIC50 (Human plasma kallikrein) | pIC50 (Human KLK1) | Compound |
| --- | --- | --- |
| 6.92 | 4.55 | Cc1cnn(Cc2ccc(Cc3cc(C(=O)NCc4ccc5c(N)nccc5c4)ncn3)cc2)c1 [Example 8, N-[(1-Aminoisoquinolin-6-yl)methyl]-6-({4-[(4-methylpyrazol-1-yl)methyl]phenyl}methyl)pyrimidine-4-carboxamide] |
| 6.98 | 5.32 | Nc1nccc2cc(CNC(=O)c3cncc(Cc4ccnc(N5CCCC5CO)c4)c3)ccc12 (stereo not shown) [Example 89, N-[(1-Aminoisoquinolin-6-yl)methyl]-5-({2-[2-(hydroxymethyl)pyrrolidin-1-yl]pyridin-4-yl}methyl)pyridine-3-carboxamide] |
| 6.79 | 5.16 | Nc1nccc2cc(CNC(=O)c3cncc(Cc4ccnc(N5CCCCC5)c4)c3)ccc12 [Example 78, N-[(1-Aminoisoquinolin-6-yl)methyl]-5-{[2-(piperidin-1-yl)pyridin-4-yl]methyl}pyridine-3-carboxamide] |
| 6.86 | 5.18 | CC1CCN(c2ccc(Cc3cncc(C(=O)NCc4ccc5c(N)nccc5c4)c3)cn2)C1 (stereo not shown) [Example 61, N-[(1-Aminoisoquinolin-6-yl)methyl]-5-{[6-(3-methylpyrrolidin-1-yl)pyridin-3-yl]methyl}pyridine-3-carboxamide] |
| 6.88 | < 5.00 | CC1(C)CCCN1c1ccc(Cc2cncc(C(=O)NCc3ccc4c(N)nccc4c3)c2)cn1 [Example 65, N-[(1-Aminoisoquinolin-6-yl)methyl]-5-{[6-(2,2-dimethylpyrrolidin-1-yl)pyridin-3-yl]methyl}pyridine-3-carboxamide] |
| 5.12 | 4.53 | Nc1nccc2cc(CNC(=O)c3cncc(CN4CCN(Cc5cccc(F)c5)CC4)c3)ccc12 [Example 46, N-[(1-Aminoisoquinolin-6-yl)methyl]-5-({4-[(3-fluorophenyl)methl]piperazin-1-yl}methyl)pyridine-3-carboxamide] |
| 6.81 | 5.15 | CC1CCCN1c1cc(Cc2cncc(C(=O)NCc3ccc4c(N)nccc4c3)c2)ccn1 (stereo not shown) [Example 79, N-[(1-Aminoisoquinolin-6-yl)methyl]-5-{[2-(2-methylpyrrolidin-1-yl)pyridin-4-yl]methyl}pyridine-3-carboxamide] |
| 6.80 | 4.75 | Cc1cnn(Cc2ccc(Cn3cc(C(=O)NCc4ccc5c(N)nccc5c4)ccc3=O)cc2)c1 [Example 15, N-[(1-Aminoisoquinolin-6-yl)methyl]-1-({4-[(4-methylpyrazol-1-yl)methyl]phenyl}methyl)-6-oxopyridine-3-carboxamide] |
| 6.75 | 5.69 | Cc1ccc2cc(Cn3cc(C(=O)NCc4ccc5c(N)nccc5c4)ccc3=O)ccc2n1 [Example 16, N-[(1-Aminoisoquinolin-6-yl)methyl]-1-[(2-methylquinolin-6-yl)methyl]-6-oxopyridine-3-carboxamide] |
